Test results published in paper PMC10525927, “First Generation of Antioxidant Precursors for Bioisosteric Se-NSAIDs: Design, Synthesis, and In Vitro and In Vivo Anticancer Evaluation” (Antioxidants, 2023).

Tests used:
Type in all cases: cell-based
H1299 lung cancer cells = assay: MTT cell viability assay, H1299; conditions: mean ± SD; for IC50 / GI50: Homo sapiens, NCI-H1299, 48 h
Method: (§1) The cell lines were purchased from the American Type Culture Collection (ATCC). The cancer cell lines DU-145, PC-3, T-47D, MDA-MB-231, H1299, and A549, and the non-tumorigenic cells (184B5 and BEAS-2B), were maintained in RPMI 1640 medium (Gibco, Alcobendas, Madrid, Spain) supplemented with 10% fetal bovine serum (FBS; Gibco) and 1% antibiotics (10.00 units/mL penicillin and 10.00 mg/mL streptomycin; Gibco). Colon cancer cells HT-29 and HCT-116 were cultured in McCoy’s 5A medium (Gibco) supplemented with 10% fetal bovine serum (FBS; Gibco) and 1% antibiotics (10.00 units/mL penicillin and 10.00 mg/mL streptomycin; Gibco). Cells were maintained in tissue culture flasks at 37 °C and 5% CO2. The culture medium was replaced every three days.
(§2) The antiproliferative activity and selectivity in vitro of the Se-NSAID derivatives were determined by the (3-(4,5-dimethylthiazol-2-yl)-2,5-diphenyltetrazolium bromide) (MTT) assay. Compounds were dissolved in DMSO at a concentration of 0.01 M and serial dilutions were prepared. The Se-NSAID derivatives were tested at seven concentrations ranging between 1 and 100 µM in the colon (HT-29 and HCT-116), prostate (DU-145 and PC-3), breast (MDA-MB-231 and T-47D), and lung (H1299 and A549) cancer cell lines. The non-tumorigenic breast (184B5) and lung (BEAS-2B) cell lines were also tested to assess the selectivity of the compounds following the same procedure. A total of 1 × 10^4 cells were seeded per well in 96-well plates and incubated at 5% CO2 and 37 °C for 24 h. Then, cells were treated with either DMSO or increasing concentrations of the corresponding Se-NSAID derivatives for 48 h. A volume of 20 µL of MTT (5 mg/mL) was added to each well 2.5 h before the termination point. At the end of the experiment, the medium was removed, and the resultant formazan crystals formed by mitochondrial reduction of MTT were dissolved in 50 µL of DMSO. Absorbance was measured at 550 nm. IC50, GI50, TGI, and LC50 values were calculated using OriginPro version 8.5.1. software by nonlinear curve fitting. Selectivity indexes (SI) were calculated as the ratio of the IC50 values determined for the nonmalignant and the tumoral cells in the breast (IC50 (184B5)/IC50 (MDA-MB-231) and IC50 (184B5)/IC50 (T-47D)) and lung (IC50 (BEAS-2B)/IC50 (H1299) and IC50 (BEAS-2B)/IC50 (A549)) cell lines. Data were obtained from at least three independent experiments performed in triplicates.

HT-29 colon cancer cells = assay: MTT cell viability assay, HT-29; conditions: mean ± SD; for IC50 / GI50: Homo sapiens, HT-29, 48 h
Method: as §1, §2

[1] = system: PC-3 prostate cancer cells; assay: MTT cell viability assay, PC-3; conditions: 48 h, mean ± SD; for GI50 / LD50 PC-3 / TGI PC-3: Table S1; for TGI PC-3: in vitro TGI concentration
Method: as §1, §2

[2] = system: MDA-MB-231 breast cancer cells; assay: MTT cell viability assay, MDA-MB-231; conditions: mean ± SD; for IC50 / GI50: Homo sapiens, MDA-MB-231, 48 h; for GI50 / TGI MDA-MB-231: Table S1; for TGI MDA-MB-231: in vitro TGI concentration, 48 h
Method: as §1, §2

[3] = system: 184B5 non-tumorigenic breast (mammary gland) cells; assay: MTT cell viability assay, 184B5; conditions: mean ± SD; for GI50 / TGI 184B5: Table S1; for TGI 184B5: in vitro TGI concentration
Method: as §1, §2

[4] = system: T-47D breast cancer cells; assay: MTT cell viability assay, T-47D; conditions: 48 h, mean ± SD; for IC50 / GI50: Homo sapiens, T47D; for GI50 / TGI T-47D / LD50 T-47D: Table S1; for TGI T-47D: in vitro TGI concentration
Method: as §1, §2

A549 lung cancer cells = assay: MTT cell viability assay, A549; conditions: mean ± SD
Method: as §1, §2

[5] = system: panel of eight cancer cell lines; assay: MTT cell viability assay, statements on the whole panel; conditions: 48 h
Method: as §1, §2

[6] = system: DU-145 prostate cancer cells; assay: MTT cell viability assay, DU-145; conditions: mean ± SD; for IC50 / GI50: Homo sapiens, DU-145, 48 h; for GI50 / LD50 DU-145 / TGI DU-145: Table S1; for LD50 DU-145 / TGI DU-145: 48 h; for TGI DU-145: in vitro TGI concentration
Method: as §1, §2

[7] = system: BEAS-2B non-tumorigenic lung (bronchial epithelium) cells; assay: MTT cell viability assay, BEAS-2B; conditions: 48 h, mean ± SD; for GI50 / LD50 BEAS-2B / TGI BEAS-2B: Table S1; for TGI BEAS-2B: in vitro TGI concentration
Method: as §1, §2

[8] = system: HCT-116 colon cancer cells; assay: MTT cell viability assay, HCT-116; conditions: mean ± SD; for IC50 / GI50: Homo sapiens, HCT-116, 48 h; for GI50 / TGI HCT-116: Table S1; for TGI HCT-116: in vitro TGI concentration, 48 h
Method: as §1, §2

[9] = 48 h, nonmalignant breast cells
[10] = Homo sapiens, 184B5, 48 h, nonmalignant breast cells
[11] = Homo sapiens, A549, 48 h, Table S1
[12] = Homo sapiens, BEAS-2B, nonmalignant lung cells
[13] = in vitro TGI concentration, 48 h, Table S1

Row | Structure (SMILES) | IC50 (H1299 lung cancer cells) [µM] | GI50 (H1299 lung cancer cells; Table S1) [µM] | IC50 (HT-29 colon cancer cells) [µM] | GI50 (HT-29 colon cancer cells; Table S1) [µM] | IC50 [1] [µM] | GI50 [1] [µM] | IC50 [2] [µM] | GI50 [2] [µM] | GI50 ([3]; Homo sapiens, 184B5, 48 h) [µM] | IC50 [3, 10] [µM] | IC50 [4] [µM] | GI50 [4] [µM] | TGI T-47D [4] [µM] | IC50 (A549 lung cancer cells; Homo sapiens, A549, 48 h) [µM] | GI50 (A549 lung cancer cells; [11]) [µM] | IC50 [6] [µM] | GI50 [6] [µM] | GI50 ([7]; Homo sapiens, BEAS-2B) [µM] | IC50 [7, 12] [µM] | IC50 [8] [µM] | other results
1 | COc1ccc2c(c1)c(CC(=O)[Se][Se]C(=O)Cc1c(C)n(C(=O)c3ccc(Cl)cc3)c3ccc(OC)cc13)c(C)n2C(=O)c1ccc(Cl)cc1 [Compound 2, 2-(1-(4-Chlorobenzoyl)-5-methoxy-2-methyl-1H-indol-3-yl)acetic diselenoperoxyanhydride] | > 50 | 53.2 ± 1.2 | > 50 | > 100 | > 50 | > 100 | > 50 | 23.1 ± 14.3 | > 100 | > 100 | > 50 | 25.5 ± 10.2 | 39.0 ± 8.5 | > 50 | > 100 | > 50 | 58.4 ± 8.4 | > 100 | > 100 | > 50 | IC50 184B5 [3, 9]: completely inactive; antiproliferative activity against all the eight cell lines ([5]; result in words): no activity; IC50 BEAS-2B ([7]; nonmalignant lung cells): completely inactive; GI50 [8]: 44.5 ± 3.4 µM; TGI HCT-116 [8]: 81.5 ± 2.3 µM
2 | COc1ccc2cc(C(C)C(=O)[Se][Se]C(=O)C(C)c3ccc4cc(OC)ccc4c3)ccc2c1 (stereo not drawn) [Compound 3, 2-(6-Methoxynaphthalen-2-yl)propanoic diselenoperoxyanhydride] | 8.1 ± 2.5 | 6.7 ± 1.1 | > 50 | 6.8 ± 1.4 | 5.2 ± 0.2 | 4.4 ± 0.3 | 5.7 ± 0.8 | 5.2 ± 0.2 | 7.1 ± 0.5 | 11.9 ± 1 | 5.6 ± 0.1 | 1.8 ± 0.2 | 3.1 ± 0.3 | > 50 | 3.3 ± 0.4 | 6.1 ± 0.6 | 5 ± 0.2 | 7 ± 2.5 | 11.2 ± 1 | 9.1 ± 5.9 | IC50 HT-29 (HT-29 colon cancer cells; 48 h): no activity at all; LD50 PC-3 [1]: 5.9 ± 0.9 µM; TGI PC-3 [1]: 5.0 ± 0.1 µM; TGI MDA-MB-231 [2]: 5.6 ± 0.8 µM; TGI 184B5 ([3]; 48 h): 9.4 ± 0.2 µM; LD50 T-47D [4]: 6.3 ± 0.7 µM; IC50 (A549 lung cancer cells; 48 h): > 100 µM; IC50 A549 (A549 lung cancer cells; 48 h): no activity at all; GI50 ([5]; eight cancer cell lines, read-out: GI50 across all the cancer cell lines tested): < 10 µM; IC50 ([5]; read-out: average IC50 in prostate (DU-145 and PC-3) and breast (MDA-MB-231 and T-47D) cancer cell lines): ~5 µM; LD50 DU-145 [6]: 10.4 ± 2.4 µM; TGI DU-145 [6]: 6.1 ± 0.6 µM; LD50 BEAS-2B [7]: 12.3 ± 2.1 µM; TGI BEAS-2B [7]: 9.0 ± 1.2 µM; GI50 [8]: 9.3 ± 4.7 µM; TGI HCT-116 [8]: 30.9 ± 16.7 µM
3 | CC(C(=O)[Se][Se]C(=O)C(C)c1cccc(C(=O)c2ccccc2)c1)c1cccc(C(=O)c2ccccc2)c1 (stereo not drawn) [Compound 4, 2-(3-Benzoylphenyl)propanoic diselenoperoxyanhydride] | 31.6 ± 1.7 | 24.6 ± 1.8 | 39.7 ± 3.3 | 24.4 ± 2.6 | 5.8 ± 0.6 | 4.8 ± 0.4 | 4.3 ± 1.2 | 2.4 ± 0.5 | 4.8 ± 0.3 | ~5 | 26 ± 2 | > 100 | 9.5 ± 2.3 | 11.7 ± 0.9 | 8.1 ± 0.4 | 27.9 ± 3.2 | 19.5 ± 3.5 | 4.2 ± 0.6 | ~5 | 5.9 ± 1.1 | LD50 H1299 (H1299 lung cancer cells; 48 h, Table S1): 43.5 ± 1.8 µM; TGI H1299 (H1299 lung cancer cells; [13]): 33.6 ± 1.6 µM; LD50 HT-29 (HT-29 colon cancer cells; 48 h, Table S1): 62.5 ± 14.3 µM; TGI HT-29 (HT-29 colon cancer cells; [13]): 36.2 ± 3.0 µM; LD50 PC-3 [1]: 6.7 ± 1.2 µM; TGI PC-3 [1]: 5.5 ± 0.5 µM; TGI MDA-MB-231 [2]: 4.2 ± 1.7 µM; IC50 [3, 9]: 5.9 ± 0.8 µM; TGI 184B5 ([3]; 48 h): 5.4 ± 0.4 µM; LD50 T-47D [4]: 27.2 ± 2.3 µM; TGI A549 (A549 lung cancer cells; [13]): 19.9 ± 3.4 µM; LD50 DU-145 [6]: 39.6 ± 2.4 µM; TGI DU-145 [6]: 28.5 ± 2.9 µM; LD50 BEAS-2B [7]: 5.4 ± 0.4 µM; IC50 ([7]; nonmalignant lung cells): 5.2 ± 0.4 µM; TGI BEAS-2B [7]: 4.7 ± 0.3 µM; GI50 [8]: 4.3 ± 0.6 µM; TGI HCT-116 [8]: 6.7 ± 1.9 µM
